Results taken from ChEMBL document CHEMBL4689842, “EUbOPEN Chemogenomics Library wave 1” (2021).

Assays:
Type in all cases: toxicity, cell-based
[1] = test system: U2OS; assay: Incucyte cell viability with U2OS; settings: human, 10 µM, compound concentration 10 uM
[2] = test system: HEK-293T; assay: Incucyte cell viability with HEK293T; settings: human, 10 µM, compound concentration 10 uM
[3] = test system: Fibroblast; assay: Incucyte cell viability with human fibroblast; settings: 10 µM, compound concentration 10 uM
[4] = 6 h, replicate number 1, timepoint 6 hours
[5] = 12 h, replicate number 1, timepoint 12 hours
[6] = 12 h, replicate number 2, timepoint 12 hours
[7] = 18 h, replicate number 1, timepoint 18 hours
[8] = 18 h, replicate number 2, timepoint 18 hours
[9] = 24 h, replicate number 1, timepoint 24 hours
[10] = 0 h, replicate number 1, timepoint 0 hours
[11] = 0 h, replicate number 2, timepoint 0 hours
[12] = 6 h, replicate number 2, timepoint 6 hours
[13] = 24 h, replicate number 2, timepoint 24 hours
Note: filed as whole numbers so only -1 and 0 and 1 occur.

Structure (SMILES) | Growth Rate [1, 5] | Growth Rate [1, 7] | Growth Rate [1, 8] | Growth Rate [1, 9] | Growth Rate [2, 10] | Growth Rate [2, 4] | Growth Rate [2, 5] | Growth Rate [2, 7] | Growth Rate [2, 9] | Growth Rate [3, 10] | Growth Rate [3, 4] | Growth Rate [3, 12] | Growth Rate [3, 5] | Growth Rate [3, 7] | Growth Rate [3, 9] | Growth Rate [1, 10] | Growth Rate [1, 12] | Growth Rate [3, 11] | Growth Rate [3, 6] | Growth Rate [2, 6] | further results
CCCCCCCCCCCCCCCCOC[C@H](COP(=O)([O-])OCC[N+](C)(C)C)OC(C)=O | 1 | 0 | 1 | 1 | 1 | 1 | 1 | 1 | 1 | 0 | 1 | 0 | 1 | 1 | 1 | – | – | – | – | – | Growth Rate [1, 4]: 0; Growth Rate [1, 6]: 0; Growth Rate [2, 11]: 0; Growth Rate [3, 8]: 0; Growth Rate [3, 13]: 0
CCCc1c(OCCCOc2ccc(OCC(=O)O)cc2)ccc(C(C)=O)c1O | 0 | 1 | – | 0 | 1 | 1 | 1 | 1 | 1 | 0 | 1 | 0 | 1 | 1 | 1 | 0 | 1 | 1 | – | – | Growth Rate [1, 11]: 1; Growth Rate [1, 6]: 1; Growth Rate [1, 13]: 1; Growth Rate [2, 11]: 0; Growth Rate [2, 12]: 0
CC[C@@H]1CN2C(=O)N(C)c3nc(-c4ccccc4)[nH]c3C2=N1.Cl | – | 1 | – | 1 | 1 | 1 | 1 | 1 | 1 | 0 | – | – | 1 | 1 | 1 | – | 1 | – | 0 | – | Growth Rate [1, 11]: 0; Growth Rate [1, 6]: 0; Growth Rate [2, 11]: 0
CCCNS(=O)(=O)Nc1ncnc(OCCOc2ncc(Br)cn2)c1-c1ccc(Br)cc1 | 0 | 0 | – | 0 | 0 | 0 | 0 | 0 | 0 | 0 | 0 | – | 0 | 1 | 0 | – | – | – | – | – | Growth Rate [1, 4]: 0
Cc1nnn(-c2ccc(-c3ccc(C4(C(=O)O)CC4)cc3)cc2)c1NC(=O)O[C@H](C)c1ccccc1 | 1 | 1 | – | 1 | 0 | 0 | 0 | 0 | 0 | 0 | – | – | – | – | – | 0 | – | – | – | 1 | Growth Rate [2, 8]: 1
CC(C)NC(=O)c1ccc(C#Cc2ccncc2)cn1 | 1 | 1 | – | 0 | 0 | 0 | 0 | 0 | 0 | 0 | 1 | 0 | 0 | 1 | 1 | 0 | – | 1 | 1 | – | Growth Rate [1, 13]: 1
COc1ccnc(N2CCC3(CCCN(Cc4c[nH]c5ccccc45)C3=O)CC2)n1 | 1 | 1 | – | 0 | 0 | 1 | 1 | 1 | 1 | 0 | 0 | – | 0 | 0 | 0 | 1 | 0 | – | – | 0 | Growth Rate [1, 6]: 0; Growth Rate [2, 8]: 0; Growth Rate [2, 13]: 0
Cc1cc([C@@H](C)Nc2cccc(-c3cc(C)c(C(=O)N[C@@H](C)C(=O)O)c(C)c3)c2)ccc1Cl | 1 | 0 | 1 | 1 | 1 | 0 | 0 | 0 | 0 | 0 | 1 | 0 | 1 | 1 | 0 | 0 | 0 | – | 0 | – | Growth Rate [1, 11]: 1; Growth Rate [2, 11]: 0
CC(C)c1onc(-c2c(Cl)cccc2Cl)c1COc1ccc(/C=C/c2cccc(C(=O)O)c2)c(Cl)c1 | 1 | 1 | – | 1 | 0 | 1 | 0 | 0 | 0 | 0 | 1 | – | 1 | 0 | 0 | 0 | – | 1 | – | 1 | Growth Rate [3, 8]: 1; Growth Rate [3, 13]: 1
COc1cc2c(CCNC(C)=O)c[nH]c2cc1Cl | 1 | 0 | 1 | 1 | 0 | 1 | 1 | 1 | 1 | 0 | 1 | – | 1 | 1 | 1 | 0 | 1 | – | – | 0 | Growth Rate [2, 12]: 0
NS(=O)(=O)c1c(Cl)ccc(NC(=O)Nc2cccc(Cl)c2Cl)c1O | 0 | 1 | – | 1 | 1 | 1 | 1 | 0 | 0 | 0 | – | 0 | 1 | 1 | 1 | 0 | – | 1 | 0 | – | Growth Rate [1, 13]: 0; Growth Rate [2, 11]: 0; Growth Rate [2, 8]: 1; Growth Rate [2, 13]: 1; Growth Rate [3, 8]: 0; Growth Rate [3, 13]: 0
Cl.O=C(O)Cc1cccc(OCCCN(Cc2cccc(C(F)(F)F)c2Cl)CC(c2ccccc2)c2ccccc2)c1 | 0 | 0 | 1 | 1 | 0 | 1 | 1 | 0 | 0 | 0 | 1 | 0 | 1 | 1 | 0 | 0 | 0 | – | 0 | 0 | Growth Rate [3, 8]: 0
CCCCN(CCCC)C(=O)CN1C[C@H](c2cc(OC)c3c(c2)OCO3)[C@@H](C(=O)O)[C@@H]1CC(C)(C)CCC.Cc1ccc(S(=O)(=O)O)cc1 | 1 | 0 | 1 | 1 | 0 | 1 | 1 | 1 | 1 | 0 | 1 | – | 1 | 1 | 0 | 0 | – | – | – | 0 | Growth Rate [1, 4]: 0; Growth Rate [2, 12]: 0; Growth Rate [2, 8]: 0; Growth Rate [2, 13]: 0; Growth Rate [3, 13]: 1
C[C@@H](c1cccc(C#N)c1)n1cc(Cl)cc(C(N)=O)c1=N.Cl | 1 | 1 | – | 1 | 0 | 1 | 0 | 1 | 1 | 0 | 1 | 0 | – | 1 | 1 | 0 | – | 1 | 0 | 1 | Growth Rate [3, 13]: 0
CC1(C)C(=O)C(C)(C)c2cc(C(=O)Nc3ccc(C(=O)O)cc3)ccc21 | 0 | 1 | – | 1 | 0 | – | 1 | 1 | 1 | 0 | 0 | – | 0 | 0 | 0 | 0 | 1 | 1 | – | – | Growth Rate [1, 6]: 1; Growth Rate [2, 12]: 1; Growth Rate [3, 8]: 1
CCCCCNC(=O)NS(=O)(=O)c1cc([N+](=O)[O-])ccc1NC1CCCCC1 | 1 | 0 | 1 | 1 | 1 | 0 | 0 | 0 | 1 | 0 | – | 0 | 1 | 1 | 1 | 0 | 1 | 1 | 0 | 1 | Growth Rate [2, 11]: 0; Growth Rate [2, 12]: 1; Growth Rate [2, 13]: 0
